We go through 2 compounds from patent US20090111822A1, “1,2,3-TRIAZOLE PYRROLIDINE DERIVATIVES AS MODULATORS OF MGLUR5” (AstraZeneca AB, priority 2007, published 2009).

Data set [1] is described as follows: Determination of brain to plasma ratio in rat. It is filed as in vivo. The settings on record: brain and plasma, female Sprague Dawley rats, drug in brain over drug in plasma, read-out: Brain/Plasma Ratio of compound in Rat. As for the experimental part:
Brain to plasma ratios are estimated in female Sprague Dawley rats. The compound is dissolved in water or another appropriate vehicle. For determination of brain to plasma ratio the compound is administrated as a subcutaneous, or an intravenous bolus injection, or an intravenous infusion, or an oral administration. At a predetermined time point after the administration a blood sample is taken with cardiac puncture. The rat is terminated by cutting the heart open, and the brain is immediately retained. The blood samples are collected in heparinized tubes and centrifuged within 30 minutes, in order to separate the plasma from the blood cells. The plasma is transferred to 96-well plates and stored at −20° C. until analysis. The brains are divided in halt and each half is placed in a pre-tarred tube and stored at −20° C. until analysis. Prior to the analysis, the brain samples are thawed and 3 mL/g brain tissue of distilled water is added to the tubes. The brain samples are sonicated in an ice bath until the samples are homogenized. Both brain and plasma samples are precipitated with acetonitrile. After centrifugation, the supernatant is diluted with 0.2% formic acid. […] After reconstitution of the residuals the samples are ready for injection onto the HPLC column.

In the next data set the target is T1, human mGluR5d (Homo sapiens, UniProt P41594).
T1 construct: expressed in transfected cells; The culture medium holds Hygromycin B and Zeocin, which points to a stably transfected line
The data set can be described thus: FLIPR assay, mGluR5 antagonism (intracellular calcium mobilization). It counts as cell-based. The settings on record: cells expressing human mGluR5d; read-out: FLIPR hmGluR5d. The text has this:
Functional Assessment of mGluR5 Antagonism in Cell Lines Expressing mGluR5D
The properties of the compounds of the invention can be analyzed using standard assays for pharmacological activity. Examples of glutamate receptor assays are well known in the art as described in for example Aramori et al, Neuron 8:757 (1992), Tanabe et al., Neuron 8:169 (1992), Miller et al., J. Neuroscience 15: 6103 (1995), Balazs, et al., J. Neurochemistry 69:151 (1997). The methodology described in these publications is incorporated herein by reference. […]
Cells expressing human mGluR5d as described in WO97/05252 cultured in a mixture of high glucose DMEM with Glutamax (31966-021) (500 mL), 10% dialyzed fetal bovine serum (Hyclone #SH30079.03) (56 mL), 200 μg/mL Hygromycin B (Invitrogen 45-0430, 50 mg/mL) (2.2 mL), 200 μg/mL Zeocin (Invitrogen #R250-01; 100 mg/mL) (1.1 mL) are seeded at a density of 100,000 cells per well on collagen coated clear bottom 96-well plates with black sides and cells were allowed to adhere over night before experiments. […] The fluorescence signal is sampled 50 times at 1-second intervals followed by 3 samples at 5-second intervals immediately after each of the two additions. Responses are measured as the difference between the peak heights of the response to agonist, less the background fluorescence within the sample period. […]
(A change in cytosolic calcium serves as a functional read-out for many receptors and channels.)

T1 sequence (P41594 21-942 isoform P41594-3 limits assumed): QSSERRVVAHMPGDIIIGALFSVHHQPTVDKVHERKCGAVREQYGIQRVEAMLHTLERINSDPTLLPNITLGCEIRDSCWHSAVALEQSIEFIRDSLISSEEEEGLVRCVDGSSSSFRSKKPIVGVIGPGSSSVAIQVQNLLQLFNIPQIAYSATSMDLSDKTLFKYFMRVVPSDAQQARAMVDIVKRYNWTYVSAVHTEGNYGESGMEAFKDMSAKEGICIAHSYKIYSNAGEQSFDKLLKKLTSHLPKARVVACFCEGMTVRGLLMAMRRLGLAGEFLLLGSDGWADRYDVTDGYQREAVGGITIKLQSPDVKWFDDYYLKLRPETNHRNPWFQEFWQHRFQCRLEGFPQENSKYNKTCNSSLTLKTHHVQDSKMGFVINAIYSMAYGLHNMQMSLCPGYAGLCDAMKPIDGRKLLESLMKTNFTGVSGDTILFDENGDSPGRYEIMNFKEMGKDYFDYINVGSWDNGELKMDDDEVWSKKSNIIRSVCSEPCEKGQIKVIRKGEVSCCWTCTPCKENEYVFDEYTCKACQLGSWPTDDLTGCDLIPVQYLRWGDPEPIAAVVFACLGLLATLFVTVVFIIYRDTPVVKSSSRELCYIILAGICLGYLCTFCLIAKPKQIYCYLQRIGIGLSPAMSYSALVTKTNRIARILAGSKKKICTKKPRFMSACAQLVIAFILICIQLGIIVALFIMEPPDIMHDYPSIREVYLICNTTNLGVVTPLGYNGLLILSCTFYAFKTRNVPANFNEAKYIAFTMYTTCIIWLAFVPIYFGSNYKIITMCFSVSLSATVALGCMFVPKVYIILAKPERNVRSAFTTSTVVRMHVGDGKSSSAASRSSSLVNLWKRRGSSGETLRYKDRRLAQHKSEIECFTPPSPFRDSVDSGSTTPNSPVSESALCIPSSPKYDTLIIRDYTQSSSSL

With `Cn1c(-c2ccncc2)nnc1N1CCC[C@@H]1c1cn(-c2cccc(Cl)c2)nn1` [Example 8.1, 4-(5-{(2R)-2-[1-(3-Chlorophenyl)-1H-1,2,3-triazol-4-yl]pyrrolidin-1-yl}-4-methyl-4H-1,2,4-triazol-3-yl)pyridine], the Kp in data set [1] came to 0.03. The IC50 at human mGluR5d is 58 nM.

Consider `Cn1c(-c2cccnc2)nnc1N1CCC[C@@H]1c1cn(-c2cccc(Cl)c2)nn1` [Example 8.2, 3-(5-{(2R)-2-[1-(3-chlorophenyl)-1H-1,2,3-triazol-4-yl]pyrrolidin-1-yl}-4-methyl-4H-1,2,4-triazol-3-yl)pyridine], for which the Kp in data set [1] is less than 0.015. Moreover, the IC50 on human mGluR5d is 116 nM.
